Assay results published in patent US20160146815A1, “METHOD FOR SCREEING CANCER METASTASIS INHIBITOR USING CULTURE OF CELLS OR SPHEROIDICALLY AGGREGATED CELLS IN WHICH LYSYL-TRNA SYNTHETASE IS REGULATED TO BE EXPRESSED OR UNEXPRESSED” (Medicinal Bioconvergence Research Center, priority 2013, published 2016).
“Also recorded” adds a separate entry of the source.

Assays:
HCT116 spheroid cells = assay: Immunostaining of p-ERKs and paxillin in spheroids in three-dimensional collagen gel (confocal microscope); assay type: cell-based, human; conditions: U0126 (50 mM) or YH16899 (50 mM), a day
Protocol: Particularly, collagen type I was distributed in PDMS, which was treated with nothing for a day (FIG. 6A and FIG. 6B) or treated with U0126 (50 mM) or YH16899 (50 mM) (FIG. 6C and FIG. 6D). Collagen gel containing the cultured cells was fixed in 4% formaldehyde for 30 minutes, followed by the treatment with 30 mM glycine for 30 minutes. Permeabilization was induced by using 0.5% triton X-100 for 30 minutes, followed by blocking with 3% BSA solution for 2 hours. The unlabeled p-ERKs (cell signaling) and paxillin (BD bioscience) antibodies were treated thereto at 4° C. at least 16˜18 hours, followed by the treatment with the secondary antibody for at least 4 hours at room temperature. At last, DAPI (4′,6-diamidino-2-phenylindole) solution was treated thereto in order to stain nuclei. The stained cells were observed under confocal microscope.

[1] = test system: HCT116 spheroidically aggregated cells; assay: Dissemination of cells from spheroidically aggregated cells in three-dimensional collagen gel (time-lapse microscope); assay type: cell-based, human; conditions: HCT116 parental cells, U0126 50 μM, three-dimensional collagen gel, real-time live imaging
Protocol: Particularly, 2.5 mg/Ml of collagen containing cells was loaded in the magnetic 4-well chamber (Live Cell Instrument, Korea) for the culture system of time-lapse microscope, and the collagen was hardened in a 37° C. incubator for 30 minutes. When the collagen was fully solidified, PRMI-1640 supplemented with 10% FBS was added thereto. The magnetic chamber containing three-dimensional collagen gel and its corresponding adaptor were placed on the time-lapse microscope, followed by setting the multi-position. […] 5% CO2 incubator. Culture medium was added thereto every 6 hours in order for the collagen not to be dried. At this time, it is important to maintain the focus not to be changed. […]
As confirmed in the result of Example 14, when the HCT116 parental cells were treated with TGFβ1, the dissemination of cells from the spheroidically aggregated cells and migration thereof were observed. When the KRS knock-out cell line was treated with TGFβ1, the dissemination of cells was not observed. […] When the extracellular signal-regulated kinase (ERKs) inhibitor U0126 was treated to the HCT116 parental cells, it was presumed to be negative effect on the dissemination and migration of cells. To verify above, 50 μM of U0126, the ERKs inhibitor, was treated to the cell line, followed by observation of cell dissemination and migration by real-time live imaging of the spheroidically aggregated cells.

HCT116 cells = assay: CK14 immunostaining of spheroids in three-dimensional collagen gel; assay type: cell-based, human; conditions: U0126 (50 mM) or YH16899 (50 mM), a day, KRS expressing cells
Description: In a three-dimensional collagen gel environment, the dissemination of cells was KRS expression-dependent, and the expressions of epithelial markers involved in cell-cell contact were reduced in the KRS knock-out cell lines. However in the KRS knock-out cell lines, the cell scattering was not observed in a two-dimensional culture environment and the dissemination was not observed in a three-dimensional collagen gel environment. So, in order to confirm whether or not the dissemination of cells from the spheroidically aggregated cells of KRS knock-out cell line in a three-dimensional collagen gel environment was attributed to the expression of epithelial marker, the cell line was cultured in a three-dimensional collagen gel environment for 24 hours. When the dissemination was observed, CK14 staining was performed and the cells were observed under confocal microscope.
Particularly, the collagen gel containing cells were distributed in PDMS, which was treated with nothing for a day (FIG. 9A) or treated with U0126 (50 mM) or YH16899 (50 mM) (FIG. 9B). The collagen gel containing the cultured cells was fixed in 4% paraformaldehyde for 30 minutes, which was then treated with 30 mM glycine for 30 minutes. Then, permeabilization was induced by using 0.5% triton X-100 for 30 minutes, followed by blocking with 3% BSA solution for 2 hours. […]

HCT116 parental cells [2] = assay: Western blotting of signaling factors in spheroidically aggregated cells in three-dimensional collagen gel; assay type: cell-based, human; conditions: for phosphorylation of FAK / expression of E-cadherin / expression of paxillin / expression of β-catenin / phosphorylation of ERKs / phosphorylation of paxillin: 50 and 100 μM, three-dimensional collagen gel, Western blotting; for phosphorylation of FAK: a day (24 hours); for expression of E-cadherin / expression of paxillin / expression of β-catenin / phosphorylation of ERKs / phosphorylation of paxillin: a day
Protocol: Whole cell extract was collected, followed by Western blotting by the same manner as described in Example <7-2>. At this time, the primary antibodies of pY397FAK, FAK, p-ERKs, ERKs, pY118paxillin, paxillin, E-cadherin, β-catenin, KRS, α-tubulin, pAkt1/2/3, and caspase 3 were used.
SDS, Na3O4V, and protease inhibitor cocktails (GenDepot) were added to lysis buffer, followed by reaction at 4° C. for at least 1 hour. Centrifugation was performed at 4° C., at 13000 rpm, for 30 minutes. The supernatant was transferred into a new microcentrifuge tube. 4×SDS-PAGE sample buffer was added thereto, followed by boiling at 100° C. for 5 minutes. The extract was quantified by Western blotting using α-tubulin antibody (Sigma). Other protein expressions and phosphorylations were also measured by Western blotting.

HCT116 parental cells [3] = conditions: U0126 50 or 100 μM, 24 hours; vs control not treated
Protocol: Particularly, the HCT116 parental cells cultured in a three-dimensional collagen gel environment were either not treated with U0126 or treated with U0126, the ERKs inhibitor, at the concentration of 50 or 100 μM, followed by culture for 24 hours.

[4] = test system: colorectal cancer cell line SW620; assay: Dissemination of cells from SW620 spheroids in three-dimensional collagen gel (time-lapse imaging); assay type: cell-based, human; conditions: SW620 parental cells treated with U0126 or YH16899
Description: Various colorectal cancer cell lines (SW620, HCT15, SNU977, KM12SM, and SNU-05) were stably transfected with shKRS to suppress KRS expression (clones #2 and #5). Then, the dissemination was observed under time-lapse microscope (FIG. 17A) or the signaling activity was investigated after the treatment of YH16899 (FIG. 17B).
Particularly, the colorectal cancer cell lines SW620, HCT15, SNU977, KM12SM, and SNU-05 (Korean Cell Line Bank, Cancer Research Institute, Seoul National University) were distributed in a three-dimensional collagen gel environment as spheroids, followed by time-lapse imaging 6 hours later or followed by normal culture in a two-dimensional environment supplemented with 10% serum for 2 days. Then, lysis buffer (50 mM Tris-HCl, pH7.4, 1% NP-40, 0.25% sodium deoxycholate, 150 mM NaCl, 1 mM EDTA) was added thereto, followed by lysis to obtain cell lysate. The protein in the obtained cell lysate was quantified, followed by Western blotting with the labeled factors.

## N#CC(=C(/N)Sc1ccccc1N)/C(C#N)=C(\N)Sc1ccccc1N [U0126]
HCT116 spheroid cells
  ERKs phosphorylation level (p-ERKs immunostaining): inhibited significantly; also recorded: very low
  paxillin immunostaining level (paxillin expression): inhibited significantly; also recorded: significantly reduced
[1]
  dissemination and migration of cells from the spheroid: suppression
[1]; listed as ERKs inhibitor
  dissemination and migration of cells from the spheroid: did not cause cell migration and dissemination; also recorded: not induced
[1]; listed as ERKs inhibitors
  dissemination and migration of cells from the spheroid: inhibited
[1]; listed as U1026
  dissemination and migration of cells from the spheroid: inhibited
HCT116 cells
  CK14 expression: significantly suppressed
HCT116 cells; listed as U1026
  CK14 expression: low and very low
HCT116 parental cells [2]
  phosphorylation of FAK: suppressed
  expression of E-cadherin: reduced
  expression of paxillin: reduced
  expression of β-catenin: reduced
  phosphorylation of ERKs: suppressed
  phosphorylation of paxillin: reduced; also recorded: suppressed
HCT116 parental cells [2]; listed as ERKs inhibitor
  phosphorylation of FAK: significantly reduced
  expression of E-cadherin: significantly reduced
  expression of paxillin: significantly reduced
  phosphorylation of paxillin: significantly reduced
HCT116 parental cells [2]; listed as U1026
  expression of E-cadherin: decreased
  expression of paxillin: inhibited
  expression of β-catenin: decreased
  phosphorylation of ERKs: inhibited
  phosphorylation of paxillin: inhibited
HCT116 parental cells [2]; HCT116 cell line in three-dimensional collagen gel, FIG. 18 legend
  expression of the epithelial marker: increased
HCT116 parental cells [3]
  expression level of E-cadherin mRNA: significantly reduced
[4]
  dissemination of cells from the three-dimensional spheroid cells: not observed
